In PubChem BioAssay (NCI):
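These data come from cells grown in 96-well plates and exposed to compound for 48 hours at five concentrations. TGI: total growth inhibition.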

Assays:
Assay in all cases: growth of human tumour cells (NCI), 48 h
[1] = tested on: NCI/ADR-RES ovarian
[2] = tested on: SN12C renal
[3] = tested on: 786-0 renal
[4] = tested on: UACC-257 melanoma
[5] = tested on: RPMI-8226 leukemia
[6] = tested on: SNB-19 CNS
[7] = tested on: T-47D breast
[8] = tested on: EKVX NSCLC
[9] = tested on: NCI-H522 lung
[10] = tested on: SK-MEL-5 melanoma
[11] = tested on: A498 renal
[12] = tested on: K-562 leukemia
[13] = tested on: SR leukemia
[14] = tested on: SK-MEL-2 melanoma
[15] = tested on: HCC-2998 colon
[16] = tested on: HOP-62 NSCLC
[17] = tested on: CCRF-CEM leukemia
[18] = tested on: CAKI-1 renal
[19] = tested on: SK-MEL-28 melanoma
[20] = tested on: HT29 colon

Measured: TGI

C/C=C(/C)C(=O)O[C@H]1[C@H]2[C@@H]([C@@H](OC(C)=O)[C@H](C)C(=O)[C@@]34C[C@@H](C)C(=O)[C@]3(/C=C(\C)[C@H]1OC(C)=O)O4)C2(C)C
5.5 µM: [3]
5.74 µM: [7]
3.35 µM: [17]
7.34 µM: [13]
8.43 µM: [12]
16 µM: [11]
9.94 µM: [5]
5.33 µM: [2]
6.29 µM: [9]
8.53 µM: [15]
7.75 µM: [10]
10 µM: [18]
17.1 µM: [8]
18.4 µM: [6]
11 µM: [14]
8.03 µM: [1]
12 µM: [16]
10.9 µM: [4]

COc1ccccc1C(=O)NO
not listed: [11]
> 100 µM: all other assays above

C/C=C/C=C\C=C/C(O)C(C)C(CCC(C)C1OC(=O)C=CC1C)OP(=O)(O)O (configuration not stated)
1.99 µM: [6]
0.905 µM: [12]
1.08 µM: [20]
1.11 µM: [2]
0.491 µM: [5]
1.51 µM: [3]
0.404 µM: [11]
2.89 µM: [9]
2.12 µM: [19]
1.46 µM: [7]
1.84 µM: [10]
0.511 µM: [13]
0.625 µM: [17]
1.54 µM: [8]
3.02 µM: [4]
2.88 µM: [1]
0.786 µM: [16]
0.314 µM: [18]
2.32 µM: [14]

CCCC1CC(=O)NC(=O)C1C(=O)OC(C)(C)C (configuration not stated)
not listed: [17]
> 100 µM: all other assays above

CC1(C)C2CCC1(C)C(OC(=O)/C=C/C(=O)OC1CC3CCC1(C)C3(C)C)C2 (configuration not stated)
55.7 µM: [13]
40.2 µM: [19]
31.1 µM: [17]
not listed: [5]
> 100 µM: all other assays above

O=C(O)c1ccccc1CC1Cc2cc3c(cc2C1)CCC3
85.6 µM: [7]
not listed: [18]
> 100 µM: all other assays above

CCOC(=O)c1ccc(C(=O)n2ccnc2)[nH]1
not listed: [20]
> 100 µM: all other assays above

CCOC(=O)CC1(Cc2ccc(OCc3ccccc3)cc2)C(=O)OC(c2ccccc2)N1C(=O)c1ccccc1 (configuration not stated)
84.7 µM: [15]
not listed: [11]
> 100 µM: all other assays above

CNC(=O)C1(C#N)C(c2ccccc2)C(C#N)(C(=O)NC)C1c1ccccc1 (configuration not stated)
not listed: [4]
> 100 µM: all other assays above

C=C(C)[C@@H]1CCC2=C[C@H](C/C(C)=C\C3=CC(C)=C(O3)[C@H]1O)OC2=O
not listed: [16] | [20]
> 100 µM: all other assays above

CON(C)C(=O)[C@H]1C[C@@]1(C)CO
not listed: [5] | [9]
> 100 µM: all other assays above

CCC/C(Cl)=N/OC(=O)Nc1cc(C(F)(F)F)ccc1OC
30.9 µM: [4]
30.6 µM: [15]
6.05 µM: [5]
28.3 µM: [19]
15.6 µM: [7]
19.9 µM: [8] | [10]
> 20.7 µM: [17]
2.99 µM: [9]
32.2 µM: [16]
33.1 µM: [1]
18.6 µM: [3]
31.5 µM: [6] | [14]
28.4 µM: [11]
27.4 µM: [2]
44.1 µM: [20]
9.01 µM: [18]
13.5 µM: [13]

CC(=O)OCC1OC(c2c(OC(C)=O)cc(C)c3c(=O)cc(/C(C(C)=O)=C(\C)O)oc23)C(OC(C)=O)C(OC(C)=O)C1OC(C)=O (configuration not stated)
not listed: [11]
> 100 µM: all other assays above

CCC1(CC)C(=O)N(C(=O)c2ccccc2)N(C(=O)c2ccc(Cl)cc2)C1=O
53.6 µM: [13]
51.3 µM: [17]
not listed: [11]
> 75 µM: all other assays above

CCOC(=O)Cc1nnc2n(-c3ccccc3)c(=O)c3ccccc3n12
43.3 µM: [18]
not listed: [5]
> 100 µM: all other assays above

CC(NCc1c(O)ccc2ccc(=O)oc12)C(=O)O (configuration not stated)
not listed: [11]
> 100 µM: all other assays above

O=c1cc(NNCc2ccccc2)[nH]c(=O)[nH]1
67 µM: [7]
not listed: [9] | [14]
> 100 µM: all other assays above

N#Cc1ccc(-c2nc3c(N)nc(-c4ccccc4)nc3o2)cc1
not listed: [17]
> 100 µM: all other assays above

C=CCC1(Sc2ccccn2)Sc2ccc3ccccc3c2-c2c(ccc3ccccc23)S1
not listed: [5]
> 100 µM: all other assays above
